Experimental data from ChEMBL document CHEMBL5523684, “Development of a tetrahydroindazolone-based HDAC6 inhibitor with in-vivo anti-arthritic activity” (Bioorg Med Chem, 2024).

Columns and labels:
Homo sapiens = species on record: Homo sapiens; assay: Selectivity index, ratio of IC50 for inhibition of his-tagged human recombinant HDAC1 using fluor de lys-SIRT1 as substrate to IC50 for inhibition of N-terminal GST-tagged human recombinant HDAC6 expressed in Spodoptera frugiperda
[1] = molecular target: T1, Protein deacetylase HDAC6 (Homo sapiens, UniProt Q9UBN7); assay: Inhibition of N-terminal GST-tagged human recombinant HDAC6 expressed in Spodoptera frugiperda incubated for 60 mins by fluorescence based analysis
T1 sequence (Q9UBN7 whole entry): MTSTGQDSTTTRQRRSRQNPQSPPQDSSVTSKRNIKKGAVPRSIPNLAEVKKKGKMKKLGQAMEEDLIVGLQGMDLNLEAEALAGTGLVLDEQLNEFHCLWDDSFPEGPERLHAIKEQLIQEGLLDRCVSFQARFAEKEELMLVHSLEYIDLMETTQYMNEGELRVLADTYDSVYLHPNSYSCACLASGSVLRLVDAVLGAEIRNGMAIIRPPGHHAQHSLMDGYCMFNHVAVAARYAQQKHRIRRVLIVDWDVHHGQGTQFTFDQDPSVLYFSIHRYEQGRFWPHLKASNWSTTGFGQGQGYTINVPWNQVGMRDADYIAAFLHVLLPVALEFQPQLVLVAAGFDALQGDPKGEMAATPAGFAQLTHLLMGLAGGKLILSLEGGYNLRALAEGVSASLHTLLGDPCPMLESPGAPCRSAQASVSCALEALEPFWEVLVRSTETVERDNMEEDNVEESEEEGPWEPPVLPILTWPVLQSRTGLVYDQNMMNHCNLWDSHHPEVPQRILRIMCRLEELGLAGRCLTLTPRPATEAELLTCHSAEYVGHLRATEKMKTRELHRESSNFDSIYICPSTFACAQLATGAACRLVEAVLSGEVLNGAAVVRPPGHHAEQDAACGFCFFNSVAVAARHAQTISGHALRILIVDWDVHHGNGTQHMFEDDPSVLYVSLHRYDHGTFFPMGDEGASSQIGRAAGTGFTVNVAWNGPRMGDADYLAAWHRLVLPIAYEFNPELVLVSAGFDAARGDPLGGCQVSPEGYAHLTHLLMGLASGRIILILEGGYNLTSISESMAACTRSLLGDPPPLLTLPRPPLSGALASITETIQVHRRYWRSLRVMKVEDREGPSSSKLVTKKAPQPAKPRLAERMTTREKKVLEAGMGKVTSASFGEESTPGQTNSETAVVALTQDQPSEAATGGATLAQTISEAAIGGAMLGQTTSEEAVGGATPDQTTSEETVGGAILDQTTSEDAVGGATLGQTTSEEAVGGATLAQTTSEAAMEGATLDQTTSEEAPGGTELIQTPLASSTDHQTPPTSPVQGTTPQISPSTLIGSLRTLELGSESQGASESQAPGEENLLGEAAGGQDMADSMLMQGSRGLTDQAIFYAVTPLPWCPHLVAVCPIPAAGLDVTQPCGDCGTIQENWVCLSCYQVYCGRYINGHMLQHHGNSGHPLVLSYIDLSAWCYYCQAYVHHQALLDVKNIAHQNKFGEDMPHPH

Histone deacetylase 1 [2] = molecular target: T2, Histone deacetylase 1 (Homo sapiens, UniProt Q13547); assay: Inhibition of his-tagged human recombinant HDAC1 using fluor de lys-SIRT1 as substrate incubated for 60 mins by fluorescence based analysis
Histone deacetylase 3 = Histone deacetylase 3 (Homo sapiens, UniProt O15379)
Histone deacetylase 2 = Histone deacetylase 2 (Homo sapiens, UniProt Q92769); assay: Inhibition of human recombinant HDAC2 using fluorescent peptide p53 (379 to 382 residues) RHKK(Ac) as substrate by fluorescence based analysis
[3] = molecular target: T1, Protein deacetylase HDAC6; assay: Inhibition of human recombinant HDAC6 using fluorescent peptide p53 (379 to 382 residues) RHKK(Ac) as substrate by fluorescence based analysis
[4] = molecular target: T3, Polyamine deacetylase HDAC10 (Homo sapiens, UniProt Q969S8); assay: Inhibition of human recombinant HDAC10 using fluorescent peptide p53 (379 to 382 residues) RHKK(Ac) as substrate by fluorescence based analysis
T3 sequence (Q969S8 whole entry): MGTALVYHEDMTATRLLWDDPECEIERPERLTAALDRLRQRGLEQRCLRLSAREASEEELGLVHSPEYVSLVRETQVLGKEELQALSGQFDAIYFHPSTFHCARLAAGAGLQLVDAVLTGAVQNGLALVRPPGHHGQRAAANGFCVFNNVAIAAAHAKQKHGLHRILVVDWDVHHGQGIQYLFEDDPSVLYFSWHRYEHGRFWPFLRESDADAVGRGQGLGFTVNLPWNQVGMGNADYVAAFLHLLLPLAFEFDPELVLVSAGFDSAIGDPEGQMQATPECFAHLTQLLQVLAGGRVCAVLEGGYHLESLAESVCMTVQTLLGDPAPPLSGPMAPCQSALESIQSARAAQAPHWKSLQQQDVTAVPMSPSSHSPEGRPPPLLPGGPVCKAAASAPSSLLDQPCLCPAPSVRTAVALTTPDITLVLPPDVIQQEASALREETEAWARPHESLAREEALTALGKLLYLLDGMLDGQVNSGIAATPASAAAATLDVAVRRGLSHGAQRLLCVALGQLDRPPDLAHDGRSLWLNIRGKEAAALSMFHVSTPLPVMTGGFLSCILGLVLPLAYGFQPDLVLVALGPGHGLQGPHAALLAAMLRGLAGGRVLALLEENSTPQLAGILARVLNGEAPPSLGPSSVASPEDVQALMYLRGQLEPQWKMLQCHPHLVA

Histone deacetylase 1 [5] = molecular target: T2, Histone deacetylase 1; assay: Inhibition of HDAC1 (unknown origin)

T2 sequence (Q13547 whole entry): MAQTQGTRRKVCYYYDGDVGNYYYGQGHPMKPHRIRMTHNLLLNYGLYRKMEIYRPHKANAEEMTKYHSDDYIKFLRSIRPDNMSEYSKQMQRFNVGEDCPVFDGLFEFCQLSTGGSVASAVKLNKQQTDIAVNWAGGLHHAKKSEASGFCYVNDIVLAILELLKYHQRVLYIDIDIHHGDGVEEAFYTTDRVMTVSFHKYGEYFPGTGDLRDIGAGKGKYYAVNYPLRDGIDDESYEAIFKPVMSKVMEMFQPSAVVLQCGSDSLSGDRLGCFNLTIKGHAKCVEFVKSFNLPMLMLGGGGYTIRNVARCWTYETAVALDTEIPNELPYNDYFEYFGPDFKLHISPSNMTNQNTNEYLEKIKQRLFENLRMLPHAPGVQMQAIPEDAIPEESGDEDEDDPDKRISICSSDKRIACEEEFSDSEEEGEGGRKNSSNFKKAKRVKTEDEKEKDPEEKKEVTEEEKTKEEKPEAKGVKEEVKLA
Histone deacetylase 2, sequence (Q92769 whole entry, the tested form may be a part): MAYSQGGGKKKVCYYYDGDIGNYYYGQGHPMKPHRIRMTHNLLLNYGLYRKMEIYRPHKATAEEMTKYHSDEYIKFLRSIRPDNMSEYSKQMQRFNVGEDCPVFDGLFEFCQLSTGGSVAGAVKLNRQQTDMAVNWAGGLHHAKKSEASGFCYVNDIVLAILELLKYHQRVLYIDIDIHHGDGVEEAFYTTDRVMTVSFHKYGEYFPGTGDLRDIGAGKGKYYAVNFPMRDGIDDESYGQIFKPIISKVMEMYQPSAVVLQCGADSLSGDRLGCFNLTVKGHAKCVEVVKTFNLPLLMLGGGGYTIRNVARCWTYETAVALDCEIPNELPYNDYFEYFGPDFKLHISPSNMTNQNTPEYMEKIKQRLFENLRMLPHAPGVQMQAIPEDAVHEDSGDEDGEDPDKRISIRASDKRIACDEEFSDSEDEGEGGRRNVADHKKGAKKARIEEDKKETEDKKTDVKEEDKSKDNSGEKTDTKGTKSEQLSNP
Histone deacetylase 3, sequence (O15379 whole entry, the tested form may be a part): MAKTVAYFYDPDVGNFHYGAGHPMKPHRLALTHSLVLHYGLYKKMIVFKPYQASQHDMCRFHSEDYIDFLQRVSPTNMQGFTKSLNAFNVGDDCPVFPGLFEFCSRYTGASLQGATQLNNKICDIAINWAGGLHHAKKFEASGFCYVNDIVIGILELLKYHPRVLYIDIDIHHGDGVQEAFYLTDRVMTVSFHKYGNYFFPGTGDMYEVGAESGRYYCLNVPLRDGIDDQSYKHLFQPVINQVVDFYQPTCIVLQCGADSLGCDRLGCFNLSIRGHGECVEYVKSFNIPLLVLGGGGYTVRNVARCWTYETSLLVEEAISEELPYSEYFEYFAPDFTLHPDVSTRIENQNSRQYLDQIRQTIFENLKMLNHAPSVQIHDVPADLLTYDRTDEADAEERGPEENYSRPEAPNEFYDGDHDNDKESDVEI

| Compound | Ratio IC50 (Homo sapiens) | IC50 [1] | further results |
| --- | --- | --- | --- |
| CC1(C)Cc2c(c3ccccc3n2Cc2ccc(C(=O)NO)cc2)C(=O)C1CN1CCOCC1 (stereo not drawn) | 153 | – | – |
| CC1(C)CC(=O)c2c(n(Cc3ccc(C(=O)NO)cc3)c3ccccc23)C1 | 345 | 12 nM | IC50 (Histone deacetylase 1 [2]): 4140 nM |
| CN1CCN(CC2CCc3c(c4cc(F)ccc4n3Cc3ccc(C(=O)NO)cc3)C2=O)CC1 (stereo not drawn) | 530 | 5 nM | IC50 (Histone deacetylase 3): > 20000 nM; IC50 (Histone deacetylase 2): > 20000 nM; IC50 [3]: 4 nM; IC50 [4]: > 20000 nM |
| Cc1nn(Cc2ccc(C(=O)NO)cc2)c2c1C(=O)CC(C)(C)C2 | 135 | 12 nM | – |
| O=C(NO)c1ccc(Cn2c3c(c4ccccc42)C(=O)C(CN2CCCCC2)CC3)cc1 (stereo not drawn) | 284 | 12 nM | – |
| O=C(NO)c1ccc(Cn2c3c(c4ccccc42)C(=O)C(CN2CCN(c4ccc(F)cc4)CC2)CC3)cc1 (stereo not drawn) | 661 | 8 nM | – |
| CCCCN1CCN(CC2CCc3c(c4cc(F)ccc4n3Cc3ccc(C(=O)NO)cc3)C2=O)CC1 (stereo not drawn) | 373 | 6 nM | – |
| CC(C)N1CCN(CC2CCc3c(c4cc(F)ccc4n3Cc3ccc(C(=O)NO)cc3)C2=O)CC1 (stereo not drawn) | 50.2 | – | – |
| CC1CN(CC2CCc3c(c4ccccc4n3Cc3ccc(C(=O)NO)cc3)C2=O)CC(C)O1 (stereo not drawn) | 79.1 | 11 nM | IC50 (Histone deacetylase 1 [2]): 870 nM |
| CC(C)(C)OC(=O)N1CCN(CC2CCc3c(c4cc(F)ccc4n3Cc3ccc(C(=O)NO)cc3)C2=O)CC1 (stereo not drawn) | 311 | – | – |
| O=C(NO)c1ccc(Cn2c3c(c4cc(F)ccc42)C(=O)CCC3)cc1 | 328 | – | – |
| Cc1nccn1CC1C(=O)c2c(n(Cc3ccc(C(=O)NO)cc3)c3ccccc23)CC1(C)C (stereo not drawn) | 166 | 35 nM | – |
| CC1(C)Cc2c(c3cc(F)ccc3n2Cc2ccc(C(=O)NO)cc2)C(=O)C1CN1CCOCC1 (stereo not drawn) | 41.4 | – | – |
| CCN1CCN(CC2CCc3c(c4cc(F)ccc4n3Cc3ccc(C(=O)NO)cc3)C2=O)CC1 (stereo not drawn) | 202 | 11 nM | – |
| CN1CCN(CC2C(=O)c3c(n(Cc4ccc(C(=O)NO)cc4)c4ccc(F)cc34)CC2(C)C)CC1 (stereo not drawn) | 182 | 2 nM | – |
| CC1(C)CC(=O)c2c(n(Cc3ccc(C(=O)NO)cc3)c3ccc(Br)cc23)C1 | 42.4 | – | – |
| Cc1ccc(N2CCN(CC3CCc4c(c5ccccc5n4Cc4ccc(C(=O)NO)cc4)C3=O)CC2)cc1C (stereo not drawn) | 203 | 40 nM | – |
| Cc1c2c(n(Cc3ccc(C(=O)NO)cc3)c1C)CCCC2=O | 705 | 4 nM | – |
| O=C(NO)c1ccc(Cn2c3c(c4cc(F)ccc42)C(=O)C(CN2CCOCC2)CC3)cc1 (stereo not drawn) | 828 | 5 nM | – |
| CCN1CCN(CC2CCc3c(c4ccccc4n3Cc3ccc(C(=O)NO)cc3)C2=O)CC1 (stereo not drawn) | 329 | 14 nM | – |
| CC(C)(C)OC(=O)N1CCN(CC2CCc3c(c4ccccc4n3Cc3ccc(C(=O)NO)cc3)C2=O)CC1 (stereo not drawn) | 327 | – | – |
| O=C(NO)c1ccc(Cn2c3c(c4ccccc42)CCCC3)cc1 | – | – | IC50 (Histone deacetylase 1 [5]): 10900 nM |
| Cc1nccn1CC1CCc2c(c3cc(F)ccc3n2Cc2ccc(C(=O)NO)cc2)C1=O (stereo not drawn) | 570 | 9 nM | – |
| Cc1cn(Cc2ccc(C(=O)NO)cc2)c2c1C(=O)CCC2 | 543 | 2 nM | IC50 (Histone deacetylase 1 [2]): 1130 nM |
| Cc1cn(Cc2ccc(C(=O)NO)cc2)c2c1C(=O)CC(C)(C)C2 | 380 | 8 nM | – |
| Cc1c2c(n(Cc3ccc(C(=O)NO)cc3)c1C)CC(C)(C)CC2=O | 464 | 11 nM | – |
| CN1CCN(CC2CCc3c(c4ccccc4n3Cc3ccc(C(=O)NO)cc3)C2=O)CC1 (stereo not drawn) | 345 | 12 nM | – |
